T/C data for 24 molecules are collected here from PubChem BioAssay AID330 (DTP/NCI, 2004).

The assay concerns P388 leukemia ip, CD2F1 mice, survival T/C. The assay can be described thus: NCI In Vivo Anticancer Drug Screen. Data for tumor model P388 Leukemia (intraperitoneal) in CD2F1 (CDF1) mice. Particulars: endpoint: median survival time, higher = longer survival. The procedure, abridged: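 Mice carrying the transplanted tumor received test compound or vehicle. Survival was recorded in each group, and the value is the treated-group measurement divided by that of the vehicle-treated control group.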

Setting [1] is: dose: 50.0 mg/kg/injection, schedule: Q01DX005 (ip), vehicle: Klucel (hydroxypropylcellulose) (HPC).
The mark [2] stands for this setting: dose: 100.0 mg/kg/injection, schedule: Q01DX005 (ip), vehicle: Klucel (hydroxypropylcellulose) (HPC).
Setting [3] is: dose: 200.0 mg/kg/injection, schedule: Q01DX005 (ip), vehicle: Klucel (hydroxypropylcellulose) (HPC).
The mark [4] stands for this setting: dose: 12.5 mg/kg/injection, schedule: Q01DX009 (ip), vehicle: Klucel (hydroxypropylcellulose) (HPC).
Setting [5] is: dose: 25.0 mg/kg/injection, schedule: Q01DX009 (ip), vehicle: Klucel (hydroxypropylcellulose) (HPC).
Setting [6] is: dose: 50.0 mg/kg/injection, schedule: Q01DX009 (ip), vehicle: Klucel (hydroxypropylcellulose) (HPC).
The mark [7] stands for this setting: dose: 100.0 mg/kg/injection, schedule: Q01DX009 (ip), vehicle: Klucel (hydroxypropylcellulose) (HPC).
[8] abbreviates: dose: 200.0 mg/kg/injection, schedule: Q01DX009 (ip), vehicle: Klucel (hydroxypropylcellulose) (HPC).
Where [9] appears, read: dose: 12.5 mg/kg/injection, schedule: Q01DX009 (ip), vehicle: saline with Tween-80.
[10] abbreviates: dose: 25.0 mg/kg/injection, schedule: Q01DX009 (ip), vehicle: saline with Tween-80.
Setting [11] is: dose: 25.0 mg/kg/injection, schedule: Q01DX005 (ip), vehicle: Klucel (hydroxypropylcellulose) (HPC).
[12] abbreviates: dose: 50.0 mg/kg/injection, schedule: Q01DX009 (ip), vehicle: saline with Tween-80.
[13] abbreviates: dose: 100.0 mg/kg/injection, schedule: Q01DX001 (ip), vehicle: saline with Tween-80.
Setting [14] is: dose: 200.0 mg/kg/injection, schedule: Q01DX001 (ip), vehicle: saline with Tween-80.
Setting [15] is: dose: 400.0 mg/kg/injection, schedule: Q01DX001 (ip), vehicle: saline with Tween-80.

“And” between values parts separate entries of the source, which are not always exact repeats. Equal entries are not always repeated. Inconclusive results and toxic doses are left out.

For the molecule `C[C@@H]1CCC2=C(CO)C(=O)O[C@@]23CC(C)(C)[C@H]2O[C@]123`, the T/C was 98 % of control (dose: 2.25 mg/kg/injection, schedule: Q01DX005 (ip), vehicle: Klucel (hydroxypropylcellulose) (HPC)); 97 % of control (dose: 4.5 mg/kg/injection, schedule: Q01DX005 (ip), vehicle: Klucel (hydroxypropylcellulose) (HPC)); 98 % of control (dose: 9.0 mg/kg/injection, schedule: Q01DX005 (ip), vehicle: Klucel (hydroxypropylcellulose) (HPC)); 100 % of control (dose: 18.0 mg/kg/injection, schedule: Q01DX005 (ip), vehicle: Klucel (hydroxypropylcellulose) (HPC)); 103 % of control (dose: 36.0 mg/kg/injection, schedule: Q01DX005 (ip), vehicle: Klucel (hydroxypropylcellulose) (HPC)).
Turning to `Cn1c(N)c(C(=O)CCc2ccccc2)c(=O)n(C)c1=O`, the T/C (dose: 50.0 mg/kg/injection, schedule: Q01DX005 (ip), vehicle: saline with Tween-80) is 97 % of control; the T/C (dose: 100.0 mg/kg/injection, schedule: Q01DX005 (ip), vehicle: saline with Tween-80) was 97 % of control; the T/C (dose: 200.0 mg/kg/injection, schedule: Q01DX005 (ip), vehicle: saline with Tween-80) is 96 % of control.
`Cc1cc(=O)oc2c(C)c3oc4ccncc4c3cc12`: the T/C runs as follows: under setting [1], 104 % of control; under setting [2], 110 % of control; under setting [3], 107 % of control.
Regarding `COc1cc(NCCN)c2ncsc2c1`, the T/C was 100 % of control (dose: 50.0 mg/kg/injection, schedule: Q01DX005 (ip), vehicle: saline) and 102 % of control (dose: 100.0 mg/kg/injection, schedule: Q01DX005 (ip), vehicle: saline).
As for `O=c1/c(=C/c2ccccc2)sc2nc(-c3ccccc3)nn12`, the T/C under setting [4] is 87 % of control; the T/C under setting [5] was 88 % of control; the T/C under setting [6] was 89 % of control and 91 % of control; the T/C under setting [7] is 107 % of control; the T/C under setting [8] was 107 % of control.
For `NCCSC(C[N+](=O)[O-])c1ccc2c(c1)OCO2` (stereo unspecified), the T/C runs as follows: under setting [9], 119 % of control; under setting [10], 124 % of control.
With `C[N+]1(C)CC[N+](C)(C)CC1`, the T/C is 103 % of control under setting [5], 103 % of control under setting [6], 100 % of control under setting [7] and 110 % of control under setting [8].
For the molecule `O=c1[nH]cnc2c1ncn2C1SC(CO)C(O)C1O` (stereo unspecified), the T/C by setting is: under setting [11], 100 % of control; under setting [1], 108 % of control; under setting [2], 101 % of control; under setting [3], 101 % of control; (dose: 400.0 mg/kg/injection, schedule: Q01DX005 (ip), vehicle: Klucel (hydroxypropylcellulose) (HPC)) 92 % of control.
Take `Cc1ccc(C(=O)N=[N+]=[N-])o1`: the T/C was 98 % of control under setting [9], 100 % of control under setting [10] and 100 % of control under setting [12].
With `Cc1cccc(-n2nc(C(=O)O)c(=O)[nH]c2=O)c1`, the T/C is, setting by setting: under setting [13], 104 % of control; under setting [14], 99 % of control; under setting [15], 95 % of control.
Consider `Cc1c(NC(=O)C(=O)O)ccc2c(=O)cc(C(=O)O)[nH]c12`, for which the T/C reads like this: under setting [6], 102 % of control and 118 % of control; under setting [7], 109 % of control and 117 % of control; under setting [8], 111 % of control and 124 % of control.
With `Cc1ccc2c(Nc3ccc(NS(C)(=O)=O)cc3C)c3ccccc3nc2c1`, the T/C is 150 % of control and 161 % of control (dose: 12.5 mg/kg/injection, schedule: Q01DX009 (ip), vehicle: saline); 98 % of control (dose: 12.5 mg/kg/injection, schedule: Q04DX003 (ip), vehicle: saline); 156 % of control and 157 % of control (dose: 25.0 mg/kg/injection, schedule: Q01DX009 (ip), vehicle: saline); 96 % of control (dose: 25.0 mg/kg/injection, schedule: Q04DX003 (ip), vehicle: saline); 97 % of control (dose: 50.0 mg/kg/injection, schedule: Q04DX003 (ip), vehicle: saline); 95 % of control (dose: 100.0 mg/kg/injection, schedule: Q04DX003 (ip), vehicle: saline).
Turning to `[CH3][Sn]([CH3])([n]1cnc(N)nc1=O)[n]1cnc(N)nc1=O`, the T/C is, setting by setting: (dose: 6.25 mg/kg/injection, schedule: Q01DX005 (ip), vehicle: Klucel (hydroxypropylcellulose) (HPC)) 108 % of control; (dose: 12.5 mg/kg/injection, schedule: Q01DX005 (ip), vehicle: Klucel (hydroxypropylcellulose) (HPC)) 120 % of control and 90 % of control; under setting [11], 112 % of control and 113 % of control; under setting [1], 105 % of control and 118 % of control.
Regarding `C=CCCc1ccccc1/C=N/NS(=O)(=O)c1ccc(C)cc1`, the T/C by setting is: under setting [13], 97 % of control; under setting [14], 88 % of control; under setting [15], 101 % of control.
Consider `Cc1ccc(S(=O)(=O)NC(=O)NC(C)Cc2ccccc2)cc1` (stereo unspecified), for which the T/C under setting [9] is 102 % of control; the T/C under setting [10] was 100 % of control; the T/C under setting [12] was 101 % of control and 105 % of control; the T/C (dose: 200.0 mg/kg/injection, schedule: Q01DX009 (ip), vehicle: saline with Tween-80) was 98 % of control.
Consider `C=C1C(=O)OC2/C=C(\C)CC/C=C(/C(=O)OC)C(OC(=O)C(C)C(C)O)C(OC(=O)C(C)(O)C(C)O)C12` (stereo unspecified), for which the T/C was 122 % of control (dose: 6.0 mg/kg/injection, schedule: Q01DX009 (ip), vehicle: Klucel (hydroxypropylcellulose) (HPC)); 122 % of control (dose: 8.0 mg/kg/injection, schedule: Q01DX009 (ip), vehicle: Klucel (hydroxypropylcellulose) (HPC)); 105 % of control (dose: 12.0 mg/kg/injection, schedule: Q01DX009 (ip), vehicle: Klucel (hydroxypropylcellulose) (HPC)).
For `Cc1nc(Nc2ccc(F)cc2)c2c(C)c(Cc3ccccc3)[nH]c2n1`, the T/C is, setting by setting: under setting [1], 88 % of control; under setting [2], 89 % of control; under setting [3], 94 % of control.
Take `COc1ccc2c(C)cc(=O)oc2c1OCC(O)CN1CCOCC1` (stereo unspecified): the T/C is 110 % of control (dose: 60.0 mg/kg/injection, schedule: Q01DX005 (ip), vehicle: saline); 104 % of control (dose: 120.0 mg/kg/injection, schedule: Q01DX005 (ip), vehicle: saline); 103 % of control (dose: 240.0 mg/kg/injection, schedule: Q01DX005 (ip), vehicle: saline).
For `CCCSP(=S)(c1ccc(Cl)cc1)c1ccc(Cl)cc1`, the T/C runs as follows: (dose: 100.0 mg/kg/injection, schedule: Q04DX002 (ip), vehicle: saline) 106 % of control; (dose: 200.0 mg/kg/injection, schedule: Q04DX002 (ip), vehicle: saline) 103 % of control; (dose: 400.0 mg/kg/injection, schedule: Q04DX002 (ip), vehicle: saline) 103 % of control.
For the molecule `NC1[N-]C(C2CCCC[N-]2)CC2CCCCC21.O=[N+]([O-])O.O=[N+]([O-])O.[Cu+2]` (stereo unspecified), the T/C is, setting by setting: (dose: 6.25 mg/kg/injection, schedule: Q04DX002 (ip), vehicle: suspension in saline) 103 % of control; (dose: 12.5 mg/kg/injection, schedule: Q04DX002 (ip), vehicle: suspension in saline) 111 % of control.
`CC(=O)CC(C)(C)C1CCCCC1`: the T/C is, setting by setting: (dose: 12.5 mg/kg/injection, schedule: Q01DX009 (ip), vehicle: water) 116 % of control; (dose: 25.0 mg/kg/injection, schedule: Q01DX009 (ip), vehicle: water) 108 % of control; (dose: 50.0 mg/kg/injection, schedule: Q01DX009 (ip), vehicle: water) 103 % of control; (dose: 100.0 mg/kg/injection, schedule: Q01DX009 (ip), vehicle: water) 107 % of control; (dose: 200.0 mg/kg/injection, schedule: Q01DX009 (ip), vehicle: water) 104 % of control.
For `Cc1ccc(S(=O)(=O)C(=S)N(C)N(C)C)cc1`, the T/C is 115 % of control under setting [4] and 117 % of control under setting [5].
As for `O=C1OCc2c1cc1n(c2=O)Cc2cc3ccccc3nc2-1`, the T/C by setting is: (dose: 1.0 mg/kg/injection, schedule: Q01DX009 (ip), vehicle: saline with Tween-80) 99 % of control and 114 % of control and 115 % of control; (dose: 2.0 mg/kg/injection, schedule: Q01DX009 (ip), vehicle: saline with Tween-80) 105 % of control.
Turning to `Cc1cccc([B-]23OCC[N+]2(CNC(=O)C2=C(O)C4(O)C(=O)C5=C(O)c6c(O)cccc6C(C)(O)C5CC4C(N(C)C)C2=O)CCO3)c1` (stereo unspecified), the T/C is 97 % of control under setting [1], 111 % of control under setting [2] and 118 % of control under setting [3].
